{"source": "patent US7078163B2", "about": "“Process for reducing mineralization of tissue used in transplantation” (Medtronic, Inc., priority 2001, dated 2006)", "target": "T1, Chymotrypsin (Bos taurus, UniProt P00766)", "T1 construct": "purchased Sigma C 4129; host or cells: bovine pancreas (tissue-derived)", "assay": "AZOCOLL enzyme activity assay of chymotrypsin after exposure to reducing agent", "format": "biochemical, bovine", "settings": "chymotrypsin exposed to DTT 10 mM in presence of SDS 1% w:v, 2 hours, 37-40° C., desalted; AZOCOLL 37° C. 20 minutes; mean of 3; positive control 0.523, negative control 0.003", "experimental": "Stock trypsin and chymotrypsin solutions were solubilized from dry powder supplied by the manufacturer in PBS, pH 7.4, at room temperature. Protein concentrations were set at 1 mg/ml. Protein solutions were sterile filtered through a 0.45 μm syringe filter to eliminate potential bacterial contamination.\nWorking solution of the protein was prepared by dilution from concentrated stock to a final concentration of 100 μg/ml.\nThe protein was incubated with the agents for 2 hours. […] The protein was passed over a Sephadex G-25 column, as described above, to prepare it for the assay. After the protein was eluted from the column it was used immediately in the assay.\nEach of the proteins that were exposed to an agent was assessed for its activity by incubating it with a collagen substrate with an azo containing dye. AZOCOLL was suspended in PBS at a concentration of 1 mg/ml.\nFor the assay, 1 ml of protein was mixed with 1 ml of AZOCOLL substrate. The reaction was performed at 37° C. for 20 minutes in Ependorff microfuge tubes. […] The aqueous solution was removed from the centrifuge tubes and the absorbance of the solution (containing soluble azo dye) was monitored at 520 nm. […]\nAll experiments were run in triplicate. Data reported is the mean of the 3 readings. […]", "data": [{"smiles": "O[C@@H](CS)[C@@H](O)CS", "note": "[reducing agent, dithiothreatol]", "values": [{"measurement": "Abs. @ 520 nm", "value": 0.031}]}]}
